# Data: US7091220B2, “Substituted indole Mannich bases” (Gruenenthal GmbH, priority 1999, dated 2006)
# Tested on: α2-subtype of the human α-adrenergic receptor
# Assay: SPA test, affinity for the α2-subtype of the human α-adrenergic receptor
# Format: binding
# Conditions: not given
# Experimental: Wide-ranging testing of the indole Mannich bases according to the invention for their activity was carried out by the conventional high throughput screening methods, such as are described in John P. Devlin, High Throughput Screening, 1997, Marcel Dekker Inc. They are introduced here as a reference and are therefore part of the disclosure.
# The action of the indole Mannich bases according to the invention is determined in particular by the affinity for the N-methyl-D-aspartate (NMDA) receptor family, for (α-adrenergic receptors and opioid receptors.
# The compounds of the general formula 1 according to the invention investigated are suitable as ligands for the α2-subtype of the human α-adrenergic receptor, which is of importance for pain sensation.
# The affinity of the compounds according to the invention for this α2-subtype of the α-adrenergic receptor has been determined with the aid of the SPA test such as is described in John P. Devlin, High Throughput Screening, Marcel Dekker Inc. 1997, pages 307 to 316. This literature is introduced herewith as a reference and is therefore part of the disclosure. The affinities of the compounds according to the invention were in each case determined at a concentration of 10 μM.
row,"% Inhibition of α2 (humans), 10 μM [%]",Compound
1,66,"CN(C)C(c1cccc(Br)c1)c1cn(C)c2ccccc12 (stereo not shown) [Example 60, [(3-Bromo-phenyl)-(1-methyl-1H-indol-3-yl)-methyl]-dimethyl-amine]"
2,60,"CN(C)C(c1ccc(C(C)(C)C)cc1)c1cn(C)c2ccccc12 (stereo not shown) [Example 63, [(4-tert-Butyl-phenyl)-(1-methyl-1H-indol-3-yl)-methyl]-dimethyl-amine]"

# Same assay, conditions: 10 µM
row,"% Inhibition of α2 (humans), 10 μM [%]",Compound
1,44,"CN(C)C(c1c(F)cccc1Cl)c1c(-c2ccccc2)[nH]c2ccccc12 (stereo not shown) [Example 66, [(2-Chloro-6-fluoro-phenyl)-(2-phenyl-1H-indol-3-yl)-methyl]-dimethyl-amine]"
2,39,"CN(C)C(c1c(F)cccc1Cl)c1cn(C)c2ccccc12 (stereo not shown) [Example 56, [(2-Chloro-6-fluoro-phenyl)-(1-methyl-1H-indol-3-yl)-methyl]-dimethyl-amine]"

# Molecular target: T1, 5-HT transporter (Rattus norvegicus, UniProt P31652)
# T1 construct: these vesicular particles were isolated from the pons and medulla oblongata region of the male rat brain; from tissue; host or cells: rat brain synaptosomes (P2 fraction) from pons and medulla oblongata of male rats
# Assay: Inhibition of serotonin re-uptake (5-HT uptake inhibition) in rat brain synaptosomes
# Format: biochemical
# Conditions: rat brain synaptosomes (P2 fraction, pons and medulla oblongata); means from 2 parallel experiments; concentration not given
# Experimental: The investigations of the inhibition of serotonin re-uptake (5-HT uptake inhibition) were carried out by the methods such as are described in M. Ch. Frink, H. -H. -Hennies, W. Englberger, M. Haurand and B. Wilffert, Arzneim.-Forsch./Drug. Res. 46 (III), 11, 1996, pages 1029–1036. They are introduced herewith as reference and thus form part of the disclosure.
# To carry out these investigations, synaptosomes were freshly isolated from rat brain areas. In each case the so-called “P2” fraction was used, which was prepared according to the instructions in E. G. Gray and V. P. Whittaker, J. Anat. 76, pages 79–88, 1962. This literature is introduced herewith as reference and thus forms part of the disclosure. For determination of the 5-HT uptake, these vesicular particles were isolated from the pons and medulla oblongata region of the male rat brain.
# The following characteristic data were determined for the 5-HT transporter: • 5-HT uptake: Km=0.084±0.011 μM • Vmax: 38.13±4.52 pmol/min/mg protein.
# The results of the investigations are in each case stated as means from 2 parallel experiments.
# T1 sequence (P31652 whole entry): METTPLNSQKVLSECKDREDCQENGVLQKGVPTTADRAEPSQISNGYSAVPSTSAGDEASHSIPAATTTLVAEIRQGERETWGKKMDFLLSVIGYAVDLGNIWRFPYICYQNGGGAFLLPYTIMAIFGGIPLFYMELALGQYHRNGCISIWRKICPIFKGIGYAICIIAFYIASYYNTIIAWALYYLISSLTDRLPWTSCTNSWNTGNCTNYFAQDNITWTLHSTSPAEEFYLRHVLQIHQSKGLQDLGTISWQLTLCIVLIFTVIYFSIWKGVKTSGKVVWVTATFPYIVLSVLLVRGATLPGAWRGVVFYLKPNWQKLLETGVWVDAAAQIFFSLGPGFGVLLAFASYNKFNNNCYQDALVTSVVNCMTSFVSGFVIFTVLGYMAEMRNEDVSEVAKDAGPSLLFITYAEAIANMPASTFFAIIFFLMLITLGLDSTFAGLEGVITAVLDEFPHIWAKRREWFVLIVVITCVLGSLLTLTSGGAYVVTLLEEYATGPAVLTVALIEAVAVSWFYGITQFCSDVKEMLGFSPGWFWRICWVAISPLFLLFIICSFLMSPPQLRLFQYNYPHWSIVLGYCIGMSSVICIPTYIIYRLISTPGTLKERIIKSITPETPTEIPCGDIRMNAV
row,Inhibition of 5HT uptake in % [%],Compound
1,39,"COc1ccc(C(c2c(-c3ccc(F)cc3)[nH]c3ccccc23)N(C)C)cc1OC (stereo not shown) [Example 83, [(3,4-Dimethoxy-phenyl)-[2-(4-fluoro-phenyl)-1H-indol-3-yl]-methyl]-dimethylamine]"
2,70,"Cc1[nH]c2ccccc2c1C(c1cccc(Oc2ccccc2)c1)N(C)C (stereo not shown) [Example 95, Dimethyl-[(2-methyl-1H-indol-3-yl)-(3-phenoxy-phenyl)-methyl]-amine]"
3,41,"Cc1[nH]c2ccccc2c1C(c1ccc(F)cc1Cl)N(C)C (stereo not shown) [Example 73, [(2-Chloro-4-fluoro-phenyl)-(2-methyl-1H-indol-3-yl)-methyl]-dimethyl-amine]"
4,62,"Cc1ccccc1C(c1c(C)[nH]c2ccccc12)N(C)C (stereo not shown) [Example 88, Dimethyl-[(2-methyl-1H-indol-3-yl)-o-tolyl-methyl]-amine]"
5,78,"Cc1ccc(C(c2c(C)[nH]c3ccccc23)N(C)C)cc1 (stereo not shown) [Example 93, Dimethyl-[(2-methyl-1H-indol-3-yl)-p-tolyl-methyl]-amine]"
6,72,"Cc1[nH]c2ccccc2c1C(c1c(F)cccc1Cl)N(C)C (stereo not shown) [Example 74, [(2-Chloro-6-fluoro-phenyl)-(2-methyl-1H-indol-3-yl)-methyl]-dimethyl-amine]"
7,44,"COc1ccc(C(c2c(-c3ccc(F)c(Cl)c3)[nH]c3ccccc23)N(C)C)cc1OC (stereo not shown) [Example 84, [[2-(3-Chloro-4-fluoro-phenyl)-1H-indol-3-yl]-(3,4-dimethoxy-phenyl)-methyl]-dimethyl-amine]"
8,64,"Cc1ccc(C(c2c[nH]c3ccc(Cl)cc23)N(C)C)cc1 (stereo not shown) [Example 94, [(5-Chloro-1H-indol-3-yl)-p-tolyl-methyl]-dimethyl-amine]"
9,41,"Cc1cccc2[nH]cc(C(c3ccc(F)cc3)N(C)C)c12 (stereo not shown) [Example 86, [(4-Fluoro-phenyl)-(4-methyl-1H-indol-3-yl)-methyl]-dimethyl-amine]"
10,73,"COc1ccc(C(c2c(C)[nH]c3ccccc23)N(C)C)cc1OC (stereo not shown) [Example 78, [(3,4-Dimethoxy-phenyl)-(2-methyl-1H-indol-3-yl)-methyl]-dimethyl-amine]"
11,50,"COc1ccc(C(c2c(-c3ccc(Cl)cc3)[nH]c3ccccc23)N(C)C)cc1OC (stereo not shown) [Example 79, [[2-(4-Chloro-phenyl)-1H-indol-3-yl]-(3,4-dimethoxy-phenyl)-methyl]-dimethyl-amine]"
12,48,"COc1ccccc1C(c1c(C)[nH]c2ccccc12)N(C)C (stereo not shown) [Example 44, [(2-Methoxyphenyl)-(2-methyl-1H-indol-3-yl)-methyl]-dimethylamine]"
13,74,"Cc1[nH]c2ccccc2c1C(c1ccc(C(F)(F)F)cc1)N(C)C (stereo not shown) [Example 103, Dimethyl-[(2-methyl-1H-indol-3-yl)-(4-trifluoromethyl-phenyl)-methyl]-amine]"

# More lines, now with the values behind:
row,Compound,Inhibition of 5HT uptake in % [%]
1,"CCn1c(-c2ccccc2)c(C(c2ccc(OC)c(OC)c2)N(C)C)c2ccccc21 (stereo not shown) [Example 80, [(3,4-Dimethoxy-phenyl)-(1-ethyl-2-phenyl-1H-indol-3-yl)-methyl]-dimethyl-amine]",42
2,"COc1cccc(C(c2c[nH]c3c2CC=C(C(=O)O)C3)N(C)C)c1OC (stereo not shown) [Example 76, 3-[(2,3-Dimethoxy-phenyl)-dimethylamino-methyl]-4,7-dihydro-1H-indole-6-carboxylic Acid]",42
3,"Cc1ccccc1C(c1c[nH]c2ccc(Cl)cc12)N(C)C (stereo not shown) [Example 91, [(5-Chloro-1H-indol-3-yl)-o-tolyl-methyl]-dimethyl-amine]",49
4,"Cc1ccccc1C(c1cn(C)c2ccccc12)N(C)C (stereo not shown) [Example 90, Dimethyl-[(1-methyl-1H-indol-3-yl)-o-tolyl-methyl]-amine]",44
5,"CCc1cccc2c(C(c3ccc(OC)c(OC)c3)N(C)C)c[nH]c12 (stereo not shown) [Example 81, [(3,4-Dimethoxy-phenyl)-(7-ethyl-1H-indol-3-yl)-methyl]-dimethyl-amine]",68
6,"Cc1cccc(C(c2c[nH]c3ccc(Cl)cc23)N(C)C)c1 (stereo not shown) [Example 92, [(5-Chloro-1H-indol-3-yl)-m-tolyl-methyl]-dimethyl-amine]",46
7,"COc1cccc(C(c2c(C(=O)O)[nH]c3ccc(O)cc23)N(C)C)c1OC (stereo not shown) [Example 77, 3-[(2,3-Dimethoxy-phenyl)-dimethylamino-methyl]-5-hydroxy-1H-indole-2-carboxylic Acid]",38
8,"COc1ccc(C(c2cn(C)c3ccccc23)N(C)C)cc1OC (stereo not shown) [Example 82, [(3,4-Dimethoxy-phenyl)-(1-methyl-1H-indol-3-yl)-methyl]-dimethyl-amine]",42
9,"CCc1cccc2c(C(c3ccccc3OC)N(C)C)c[nH]c12 (stereo not shown) [Example 87, [(7-Ethyl-1H-indol-3-yl)-(2-methoxy-phenyl)-methyl]-dimethyl-amine]",50
10,"CN(C)C(c1cccc(Oc2ccccc2)c1)c1c(-c2ccc(F)cc2)[nH]c2ccccc12 (stereo not shown) [Example 99, [[2-(4-Fluoro-phenyl)-1H-indol-3-yl]-(3-phenoxy-phenyl)-methyl]-dimethyl-amine]",42
11,"Cc1cccc2[nH]cc(C(c3cccc(Oc4ccccc4)c3)N(C)C)c12 (stereo not shown) [Example 101, Dimethyl-[(4-methyl-1H-indol-3-yl)-(3-phenoxy-phenyl)-methyl]-amine]",41
12,"COc1cccc(C(c2c[nH]c3cccc([N+](=O)[O-])c23)N(C)C)c1OC (stereo not shown) [Example 75, [(2,3-Dimethoxy-phenyl)-(4-nitro-1H-indol-3-yl)-methyl]-dimethylamine]",39
13,"CCn1c(-c2ccccc2)c(C(c2ccc(C(C)(C)C)cc2)N(C)C)c2ccccc21 (stereo not shown) [Example 72, [(4-tert-Butyl-phenyl)-(1-ethyl-2-phenyl-1H-indol-3-yl)-methyl]-dimethyl-amine]",60
14,"CN(C)C(c1ccccc1C(F)(F)F)c1c[nH]c2ccc(Cl)cc12 (stereo not shown) [Example 102, [(5-Chloro-1H-indol-3-yl)-(2-trifluoromethyl-phenyl)-methyl]-dimethyl-amine]",42
15,"CN(C)C(c1ccccc1F)c1c[nH]c2ccc(Cl)cc12 (stereo not shown) [Example 85, [(5-Chloro-1H-indol-3-yl)-(2-fluoro-phenyl)-methyl]-dimethyl-amine]",44
16,"CN(C)C(c1cccc(Oc2ccccc2)c1)c1cn(C)c2ccccc12 (stereo not shown) [Example 98, Dimethyl-[(1-methyl-1H-indol-3-yl)-(3-phenoxy-phenyl)-methyl]-amine]",66
17,"CCc1cccc2c(C(c3ccccc3C)N(C)C)c[nH]c12 (stereo not shown) [Example 89, [(7-Ethyl-1H-indol-3-yl)-o-tolyl-methyl]-dimethyl-amine]",45
18,"CCc1cccc2c(C(c3cccc(Oc4ccccc4)c3)N(C)C)c[nH]c12 (stereo not shown) [Example 97, [(7-Ethyl-1H-indol-3-yl)-(3-phenoxy-phenyl)-methyl]-dimethyl-amine]",79
19,"NC(c1cccc(Oc2ccccc2)c1)c1c(-c2ccc(F)c(Cl)c2)[nH]c2ccccc12 (stereo not shown) [Example 100, [[2-(3-Chloro-4-fluoro-phenyl)-1H-indol-3-yl]-(3-phenoxy-phenyl)-methyl]-amine]",48
20,"CCn1c(-c2ccccc2)c(C(c2cccc(Oc3ccccc3)c2)N(C)C)c2ccccc21 (stereo not shown) [Example 96, [(1-Ethyl-2-phenyl-1H-indol-3-yl)-(3-phenoxy-phenyl)-methyl]-dimethylamine]",55
